The text below walks through data of patent US20040214832A1, “Piperazine derivative renin inhibitors” (priority 2003, published 2004).

Some results are limits rather than exact numbers.

For this test, the target named is T1, human renin (Homo sapiens, UniProt P00797).
T1 sequence (P00797 67-406): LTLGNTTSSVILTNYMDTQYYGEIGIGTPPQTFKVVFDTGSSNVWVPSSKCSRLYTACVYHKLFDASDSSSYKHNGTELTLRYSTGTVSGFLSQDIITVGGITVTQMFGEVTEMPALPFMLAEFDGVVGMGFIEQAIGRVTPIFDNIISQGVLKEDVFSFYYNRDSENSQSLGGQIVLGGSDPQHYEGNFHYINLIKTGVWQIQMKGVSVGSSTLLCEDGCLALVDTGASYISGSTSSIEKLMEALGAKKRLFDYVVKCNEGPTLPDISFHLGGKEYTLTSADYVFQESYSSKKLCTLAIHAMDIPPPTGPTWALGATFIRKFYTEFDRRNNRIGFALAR
Nature of the test: Determination of renin IC50 by tGFP FRET assay. The settings on record: Human recombinant renin, tandem GFP substrate 650 nM, 60 min incubation with compound, pH 7.4, 11-point curve. In kind it is biochemical. The gist of the method:
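Human recombinant renin (final 50.4 μIU) preincubated 60 min with compound (5% DMSO final) in 50 mM HEPES, 1 mM EDTA, 1% PEG 8000, 1 mM DTT, 0.1% BSA, pH 7.4, then tandem-GFP substrate added at 650 nM final. FRET fluorescence read; IC50 from 11-point curves spanning 100 μM–1 pM.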
Regarding `COc1ccccc1COCCCOc1ccc(N2C(=O)CNC[C@@H]2COCc2ccccc2OC)cc1` [Example 10, (6R)-6-(2-methoxybenzyloxymethyl)-1-{4-[3-(2-methoxybenzyloxy)-propoxy]-phenyl}-piperazin-2-one], the concentration for half-maximal inhibition (IC50) is 880 nM.

As for `COC(=O)CCn1ccc2cc(OC[C@H]3CNCC(=O)N3c3ccc(OCCCOCc4ccccc4OC)cc3)ccc21` [Example 119, 3-[5-([2R]-1-{4-[3-(2-Methoxybenzyloxy)-propoxy]-phenyl}-6-oxopiperazin-2-ylmethoxy)-indol-1-yl]-propionic acid methyl ester], the half-maximal inhibitory concentration (IC50) came out at 1.62 nM.

In the case of `COc1ccccc1OCCCOCc1ccc(N2CCNC[C@@H]2COc2ccc3ccccc3c2)cc1` [Example 97, (2R)-1-(4-[3-(2-methoxyphenoxy)-propoxymethyl]-phenyl)-2-(naphthalene-2-yloxymethyl)-piperazine], the IC50 was found to be 26300 nM.

For the compound `COc1ccccc1COCCCOc1ccc(N2C(=O)CNC[C@@H]2COCc2ccc(C#N)cc2)cc1` [Example 28, (6R)-4-(1-{4-[3-(2-methoxybenzyloxy)-propoxy]-phenyl}-6-oxopiperazin-2-ylmethoxymethyl)-benzonitrile], the half-maximal inhibitory concentration (IC50) is over 1000 nM.

With `COc1ccccc1COCCCOc1ccc(N2CCNC[C@@H]2COc2ccc3c(c2)CCCC3)cc1` [Example 40, (2R)-1-{4-[3-(2-methoxybenzyloxy)-propoxy]-phenyl}-2-(5,6,7,8-tetrahydronaphthalen-2-yloxymethyl)-piperazine], the IC50 stood at 440 nM.

Turning to `COC(=O)Cn1ccc2cc(OC[C@@H]3CNCC(=O)N3c3ccc(OCCCOCc4ccccc4OC)cc3)ccc21` [Example 113, [5-([2S]-1-{4-[3-(2-Methoxybenzyloxy)-propoxy]-phenyl}-6-oxopiperazin-2-ylmethoxy)-indol-1-yl]-acetic acid methyl ester], the half-inhibitory concentration (IC50) came out at 10 nM.

For `COc1ccccc1COCCCOc1ccc(N2C(=O)CNC[C@@H]2CNC(=O)c2ccc(Cl)cc2)cc1` [Example 83, 4-chloro-N-([2R]-1-{4-[3-(2-methoxybenzyloxy)-propoxy]-phenyl}-6-oxopiperazin-2-ylmethyl)-benzamide], the IC50 was over 1000 nM.

Take `COc1cccc(COC[C@H]2CNCC(=O)N2c2ccc(OCCCOCc3ccccc3OC)cc2)c1` [Example 9, (6R)-6-(3-methoxybenzyloxymethyl)-1-{4-[3-(2-methoxybenzyloxy)-propoxy]-phenyl}-piperazin-2-one]: the IC50 stood at 612 nM.

With `CCOc1ccccc1COCCCOc1ccc(N2CCNC[C@@H]2COc2ccc3ccccc3c2)cc1` [Example 88, (2R)-1-{4-[3-(2-ethoxybenzyloxy)-propoxy]-phenyl}-2-(naphthalen-2-yloxymethyl)-piperazine], the half-inhibitory concentration (IC50) was 1980 nM.

On to `COc1ccccc1COCCCOc1ccc(N2C(=O)CNC[C@@H]2COCc2c(F)cccc2F)cc1` [Example 16, (6R)-6-(2,6-difluorobenzyloxymethyl)-1-{4-[3-(2-methoxybenzyloxy)-propoxy]-phenyl}-piperazin-2-one], for which the IC50 is over 1000 nM.

`COc1ccccc1COCCCOc1ccc(N2C(=O)CNC[C@H]2COc2ccc3ccccc3c2)cc1` [Example 1, (6S)-1-{4-[3-(2-methoxybenzyloxy)-propoxy]-phenyl}-6-(naphthalen-2-yloxymethyl)-piperazin-2-one]: the IC50 came to 66 nM.

Take `COc1ccccc1COCCCOc1ccc(N2C(=O)CNC[C@@H]2COCc2ccc(C)cc2)cc1` [Example 7, (6R)-1-{4-[3-(2-methoxybenzyloxy)-propoxy]-phenyl}-6-(4-methylbenzyloxymethyl)-piperazin-2-one]: the half-inhibitory concentration (IC50) worked out at 337 nM.

As for `CCC(=O)OCCN1CCCc2ccc(OC[C@H]3CNCC(=O)N3c3ccc(OCCCOCc4ccccc4OC)cc3)cc21` [Example 123, Propionic acid 2-[7-([2R]-1-{4-[3-(2-methoxybenzyloxy)-propoxy]-phenyl}-6-oxopiperazin-2-ylmethoxy)-3,4-dihydro-2H-quinolin-1-yl]-ethyl ester], the concentration for half-maximal inhibition (IC50) was 9 nM.

Consider `COCCCN1C(=O)CCc2ccc(OC[C@H]3CNCC(=O)N3c3ccc(OCCCOCc4ccccc4OC)cc3)cc21` [Example 111, 7-([2R]-1-{4-[3-(2-Methoxybenzyloxy)-propoxy]-phenyl}-6-oxopiperazin-2-ylmethoxy)-1-(3-methoxypropyl)-3,4-dihydro-1H-quinolin-2-one], for which the IC50 is 3.91 nM.

For `COCCCN1CCCc2ccc(OC[C@H]3CNCC(=O)N3c3ccc(OCCCOCc4ccccc4OC)cc3)cc21` [Example 109, (6R)-1-{4-[3-(2-Methoxybenzyloxy)-propoxy]-phenyl}-6-[1-(3-methoxypropyl)-1,2,3,4-tetrahydroquinolin-7-yloxymethyl]-piperazin-2-one], the IC50 is 3.17 nM.

Regarding `COc1ccccc1COCCCOc1ccc(N2C(=O)CNC[C@@H]2COc2ccc3c(c2)N(CCOC(C)=O)CCC3)cc1` [Example 31, acetic acid 2-[7-(1-{4-[3-(2-methoxybenzyloxy)-propoxy]-phenyl}-6-oxopiperazin-(2R)-ylmethoxy)-3,4-dihydro-2H-quinolin-1-yl]-ethyl ester], the IC50 amounted to 0.42 nM.

For `CCOC(=O)Cn1ccc2ccc(OC[C@H]3CNCC(=O)N3c3ccc(OCCCOCc4ccccc4OC)cc3)cc21` [Example 132, [6-([2R]-1-{4-[3-(2-Methoxybenzyloxy)-propoxy]-phenyl}-6-oxo-piperazin-2-ylmethoxy)-indol-1-yl]-acetic acid ethyl ester], the half-maximal inhibitory concentration (IC50) worked out at 6 nM.

`COc1ccccc1COCCCOc1ccc(N2C(=O)CNC[C@@H]2COCc2cc(F)cc(F)c2)cc1` [Example 11, (6R)-6-(3,5-difluorobenzyloxymethyl)-1-{4-[3-(2-methoxybenzyloxy)-propoxy]-phenyl}-piperazin-2-one]: the 50% inhibitory concentration (IC50) was 1570 nM.

As for `COc1ccccc1COCCCOc1ccc(N2C(=O)CNC[C@@H]2COCc2cccc(C)c2)cc1` [Example 15, (6R)-1-{4-[3-(2-methoxybenzyloxy)-propoxy]-phenyl}-6-(3-methylbenzyloxymethyl)-piperazin-2-one], the IC50 was 372 nM.

On to `Fc1ccccc1COCCCOc1ccc(N2CCNC[C@@H]2COc2ccc3ccccc3c2)cc1` [Example 87, (2R)-1-{4-[3-(2-fluorobenzyloxy)-propoxy]-phenyl}-2-(naphthalen-2-yloxymethyl)-piperazine], for which the IC50 is 597 nM.

For the compound `COc1ccccc1COCCCOc1ccc(N2C(=O)CNC[C@@H]2COc2cnccn2)cc1` [Example 79, (6R)-1-{4-[3-(2-methoxybenzyloxy)-propoxy]-phenyl}-6-(pyrazin-2-yloxymethyl)-piperazin-2-one], the 50% inhibitory concentration (IC50) is 76400 nM.

Regarding `COc1ccccc1COCCCOc1ccc(N2C(=O)CNC[C@@H]2COc2ccc3cccnc3c2)cc1` [Example 41, (6R)-1-{4-[3-(2-methoxybenzyloxy)-propoxy]-phenyl}-6-(quinolin-7-yloxymethyl)-piperazin-2-one], the IC50 is 822 nM.

On to `COc1ccccc1COCCCOc1ccc(N2C(=O)CNC[C@@H]2COc2ccc3c(c2)N(Cc2cscn2)CCC3)cc1` [Example 55, (6R)-1-{4-[3-(2-methoxybenzyloxy)-propoxy]-phenyl}-6-(1-thiazol-4-ylmethyl-1,2,3,4-tetrahydroquinolin-7-yloxymethyl)-piperazin-2-one], for which the IC50 was determined as 379 nM.

Consider `COc1ccccc1COCCCOc1ccc(N2C(=O)CNC[C@@H]2COCc2cccnc2)cc1` [Example 23, (6R)-1-{4-[3-(2-methoxybenzyloxy)-propoxy]-phenyl}-6-(pyridin-3-ylmethoxymethyl)-piperazin-2-one], for which the IC50 was 117 nM.

As for `COc1ccccc1COCCCOc1ccc(N2C(=O)CNC[C@@H]2COCc2cccc(Cl)c2)cc1` [Example 6, (6R)-6-(3-chlorobenzyloxymethyl)-1-{4-[3-(2-methoxybenzyloxy)-propoxy]-phenyl}-piperazin-2-one], the IC50 worked out at 325 nM.

As for `COc1ccccc1COCCCOc1ccc(N2C(=O)CNC[C@@H]2COc2ccc3ccccc3c2)cc1C` [Example 103, (6R)-1-{4-[3-(2-methoxybenzyloxy)-propoxy]-3-methyl-phenyl}-6-(naphthalene-2-yloxymethyl)-piperazin-2-one], the IC50 came out at 167 nM.

On to `COc1ccccc1COCCCOc1ccc(N2C(=O)CNC[C@@H]2COCc2ccc(Cl)c(C(F)(F)F)c2)cc1` [Example 24, (6R)-6-(4-chloro-3-trifluoromethylbenzyloxymethyl)-1-{4-[3-(2-methoxybenzyloxy)-propoxy]-phenyl}-piperazin-2-one], for which the IC50 was determined as 107 nM.

Take `COc1ccccc1COCCCOc1ccc(N2C(=O)CNC[C@@H]2COC(=O)c2ccc(Cl)cc2)cc1` [Example 60, 4-chloro-benzoic acid (2R)-1-{4-[3-(2-methoxybenzyloxy)-propoxy]-phenyl}-6-oxopiperazin-2-yl methyl ester]: the IC50 was over 1000 nM.

For `CCOCCNC(=O)c1ccc(N2C(=O)CNC[C@@H]2COc2ccc3ccccc3c2)cc1` [Example 49, N-(2-ethoxyethyl)-4-[(2R)-2-(naphthalen-2-yloxymethyl)-6-oxopiperazin-1-yl]-benzamide], the IC50 is over 1000 nM.

Consider `O=C(NCCc1ccccc1)c1ccc(N2C(=O)CNC[C@@H]2COc2ccc3ccccc3c2)cc1` [Example 47, 4-[(2R)-2-(naphthalen-2-yloxymethyl)-6-oxopiperazin-1-yl]-N-phenethylbenzamide], for which the half-inhibitory concentration (IC50) is over 1000 nM.

For orientation: IC50 means the midpoint of a concentration-inhibition curve.
